The record followed here is the supplement of paper PMC11208160.
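Also: IS621 recombinase and bridge RNA in Escherichia coli cells.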

This series is described as follows: recombinant barcode read abundance after kanamycin selection (control-corrected) (log10(CPM+1)); higher = more efficient recombination; sequences stand for … in AGTGCAGAGAAAATCGGCCAGTTTTCTCTGCCTGCAGTCCGCATGCCGT…AGATTTATGCAGCGGACTGCCTTTCTCCCAAAGTGATAAACCGGACAGTATCATGGACCGGTTTTCCCGGTAATCCGTATTTGCAAGGTTGGTTTCACT; site = the 11-nt target. Put shortly: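 Pooled oligos, each joining a target to an IS621 bridge RNA target-binding loop, were cloned and co-electroporated with a donor plasmid into E. coli. Selective plates carried chloramphenicol/ampicillin/kanamycin and 0.1 mM IPTG, while chloramphenicol/ampicillin LB agar served as control, with two replicates of each. Recombination efficiency rests on averaged, control-corrected counts per million of barcodes at recombinant junctions, shown as log10(CPM+1).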
Consider “CACTGTTCTTGGGTTCTAACCTGTTGCCT (site CACTGTTCTAG)”, for which the “recombinant barcode read abundance (log10)” value was found to be 0.737.
As for “CACTTCCCTTGGGTTCTAACCTGTTGCAT (site CACTTCCCTAA)”, the figure is 0.0158; as for “CACTTCCCTTGGGTTCTAACCTGTTGCAT (site CACTTCCCTAC)”, 0.106.
For “CACTTCCCTTGGGTTCTAACCTGTTGCAT (site CACTTCCCTAG)” the value was 0.316; for “CACTTCCCTTGGGTTCTAACCTGTTGCAT (site CACTTCCCTAT)”, 1.93.
In the case of “CACTTCCCTTGGGTTCTAACCTGTTGCGA (site AGTGAAGCTGT)”, the “recombinant barcode read abundance (log10)” value came to 0.222.
For the sequence “CACTTCCCTTGGGTTCTAACCTGTTGCGA (site CACTTCCCTTC)”, the “recombinant barcode read abundance (log10)” value worked out at 0.492.
Take “CACTTCCCTTGGGTTCTAACCTGTTGCGT (site CACTTCCCTAA)”: the “recombinant barcode read abundance (log10)” value worked out at 0.0684.
For “CACTTCCCTTGGGTTCTAACCTGTTGCGT (site CACTTCCCTAC)” the value was 2.4; for “CACTTCCCTTGGGTTCTAACCTGTTGCGT (site CACTTCCCTAG)”, 0.402.
For “CACTTCCCTTGGGTTCTAACCTGTTGCGT (site CACTTCCCTAT)”, the “recombinant barcode read abundance (log10)” value amounted to 1.5.
For “CACTTGGCTTGGGTTCTAACCTGTTGCCT (site CACTTGACTAG)” the value was 0.0371; for “CACTTGGCTTGGGTTCTAACCTGTTGCCT (site CACTTGCCTAG)”, 0.366.
For “CACTTGGCTTGGGTTCTAACCTGTTGCCT (site CACTTGGCTAG)” the value was 0.134; for “CACTTGGCTTGGGTTCTAACCTGTTGCCT (site CACTTGTCTAG)”, 0.0944; for “CAGAACACTTGGGTTCTAACCTGTTGCCT (site AAGAACACTAG)”, 0.0991.
For the sequence “CAGAACACTTGGGTTCTAACCTGTTGCCT (site CAGAACACTAG)”, the “recombinant barcode read abundance (log10)” value was found to be 1.94.
Consider “CAGAACACTTGGGTTCTAACCTGTTGCCT (site GAGAACACTAG)”, for which the “recombinant barcode read abundance (log10)” value was found to be 0.198.
For “CAGAACACTTGGGTTCTAACCTGTTGCCT (site TAGAACACTAG)” the value was 0.171; for “CAGCCCTCTTGGGTTCTAACCTGTTGCCT (site CAGCCCTCTAG)”, 2.59; for “CAGCCCTCTTGGGTTCTAACCTGTTGCCT (site CCGCCCTCTAG)”, 0.883.
For “CAGCCCTCTTGGGTTCTAACCTGTTGCCT (site CGGCCCTCTAG)” the value was 0.0354; for “CAGCCCTCTTGGGTTCTAACCTGTTGCCT (site CTGCCCTCTAG)”, 0.315.
“CAGCTACCTTGGGTTCTAACCTGTTGCCT (site CAGCTACCTAG)”: the “recombinant barcode read abundance (log10)” value worked out at 1.73.
For “CAGCTACCTTGGGTTCTAACCTGTTGCCT (site CCGCTACCTAG)” the value was 0.334; for “CAGCTACCTTGGGTTCTAACCTGTTGCCT (site CGGCTACCTAG)”, 0.226.
With “CAGCTACCTTGGGTTCTAACCTGTTGCCT (site CTGCTACCTAG)”, the “recombinant barcode read abundance (log10)” value was determined as 0.585.
For “CAGGACTCTTGGGTTCTAACCTGTTGCTT (site CAGCACTCTTA)” the value was 0.0832; for “CAGGACTCTTGGGTTCTAACCTGTTGCTT (site CAGGACTCTAA)”, 2.85.
As to “CAGGCGGCTTGGGTTCTAACCTGTTGCCT (site CAGGCGACTAG)”, the “recombinant barcode read abundance (log10)” value was 0.117.
For “CAGGCGGCTTGGGTTCTAACCTGTTGCCT (site CAGGCGCCTAG)”, the “recombinant barcode read abundance (log10)” value is 0.254.
With “CAGGCGGCTTGGGTTCTAACCTGTTGCCT (site CAGGCGGCTAG)”, the “recombinant barcode read abundance (log10)” value stood at 0.829.
As to “CAGGCGGCTTGGGTTCTAACCTGTTGCCT (site CAGGCGTCTAG)”, the “recombinant barcode read abundance (log10)” value was determined as 0.0685.
“CAGGGTCCTTGGGTTCTAACCTGTTGCGG (site CAGGGTCCTCC)”: the “recombinant barcode read abundance (log10)” value came out at 3.55.
As for “CAGGGTCCTTGGGTTCTAACCTGTTGCGG (site TAGGGTTCTCC)”, the figure is 0.0367; as for “CAGTCAGCTTGGGTTCTAACCTGTTGCCT (site CAGTCAGCTAG)”, 1.16; as for “CAGTCAGCTTGGGTTCTAACCTGTTGCCT (site GTAAGGACTCC)”, 0.0866.
As to “CAGTCCTCTTGGGTTCTAACCTGTTGCTG (site CAGTCCTCTCA)”, the “recombinant barcode read abundance (log10)” value stood at 2.23.
Consider “CAGTCCTCTTGGGTTCTAACCTGTTGCTG (site CCGTCCTCTCA)”, for which the “recombinant barcode read abundance (log10)” value is 0.0321.
As for “CAGTGAACTTGGGTTCTAACCTGTTGCCT (site CAGTGAACTAG)”, the figure is 1.55; as for “CAGTGAACTTGGGTTCTAACCTGTTGCCT (site CCGTGAACTAG)”, 0.181; as for “CAGTGAACTTGGGTTCTAACCTGTTGCCT (site CGGTGAACTAG)”, 0.0595.
For “CAGTGAACTTGGGTTCTAACCTGTTGCCT (site CTGTGAACTAG)”, the “recombinant barcode read abundance (log10)” value was 0.0273.
With “CAGTGGACTTGGGTTCTAACCTGTTGCCT (site CAATGGACTAG)”, the “recombinant barcode read abundance (log10)” value was 0.961.
For “CAGTGGACTTGGGTTCTAACCTGTTGCCT (site CACTGGACTAG)” the value was 0.101; for “CAGTGGACTTGGGTTCTAACCTGTTGCCT (site CAGTGGACTAG)”, 2.04.
With “CAGTGGACTTGGGTTCTAACCTGTTGCCT (site CATTGGACTAG)”, the “recombinant barcode read abundance (log10)” value was found to be 0.0477.
For “CAGTTGTCTTGGGTTCTAACCTGTTGCCT (site AAGTTGTCTAC)” the value was 0.0187; for “CAGTTGTCTTGGGTTCTAACCTGTTGCCT (site CAGTTGTCTAG)”, 1.75.
As for “CATAATTCTTGGGTTCTAACCTGTTGCCT (site CATAATTCTAG)”, the figure is 0.445.
As for “CATAATTCTTGGGTTCTAACCTGTTGCCT (site CATCATTCTAG)”, the figure is 0; as for “CATAATTCTTGGGTTCTAACCTGTTGCCT (site CATGATTCTAG)”, 0.0188.
Regarding “CATAATTCTTGGGTTCTAACCTGTTGCCT (site CATTATTCTAG)”, the “recombinant barcode read abundance (log10)” value stood at 0.0376.
Regarding “CATAGCGCTTGGGTTCTAACCTGTTGCCT (site AGCTTGCCTCT)”, the “recombinant barcode read abundance (log10)” value amounted to 0.0679.
As for “CATAGCGCTTGGGTTCTAACCTGTTGCCT (site CATAGCGCTAG)”, the figure is 0.605.
As for “CATAGCTCTTGGGTTCTAACCTGTTGCCT (site AATAGCTCTAG)”, the “recombinant barcode read abundance (log10)” value stood at 0.527.
As for “CATAGCTCTTGGGTTCTAACCTGTTGCCT (site CATAGCTCTAG)”, the figure is 1.24; as for “CATAGCTCTTGGGTTCTAACCTGTTGCCT (site GATAGCTCTAG)”, 0.176.
As for “CATAGCTCTTGGGTTCTAACCTGTTGCCT (site TATAGCTCTAG)”, the figure is 0.337; as for “CATAGGCCTTGGGTTCTAACCTGTTGCAT (site CATAGACCTAT)”, 0.23.
In the case of “CATAGGCCTTGGGTTCTAACCTGTTGCAT (site CATAGCCCTAT)”, the “recombinant barcode read abundance (log10)” value amounted to 0.371.
For “CATAGGCCTTGGGTTCTAACCTGTTGCAT (site CATAGGCCTAT)”, the “recombinant barcode read abundance (log10)” value worked out at 0.811.
As for “CATAGGCCTTGGGTTCTAACCTGTTGCAT (site CATAGTCCTAT)”, the figure is 0.105; as for “CATAGTCCTTGGGTTCTAACCTGTTGCAT (site CATAGACCTAT)”, 0.213.
As for “CATAGTCCTTGGGTTCTAACCTGTTGCAT (site CATAGCCCTAT)”, the figure is 0.884; as for “CATAGTCCTTGGGTTCTAACCTGTTGCAT (site CATAGGCCTAT)”, 0.0509.
As for “CATAGTCCTTGGGTTCTAACCTGTTGCAT (site CATAGTCCTAT)”, the figure is 0.923; as for “CATCCCTCTTGGGTTCTAACCTGTTGCTT (site CATCCCTCTAA)”, 1.51.
Regarding “CATCCCTCTTGGGTTCTAACCTGTTGCTT (site CATCCGTCTAA)”, the “recombinant barcode read abundance (log10)” value came out at 0.0576.
Consider “CATCCGTCTTGGGTTCTAACCTGTTGCCT (site CATCCGACTAG)”, for which the “recombinant barcode read abundance (log10)” value came to 0.105.
As for “CATCCGTCTTGGGTTCTAACCTGTTGCCT (site CATCCGCCTAG)”, the figure is 0.0457; as for “CATCCGTCTTGGGTTCTAACCTGTTGCCT (site CATCCGGCTAG)”, 0.131; as for “CATCCGTCTTGGGTTCTAACCTGTTGCCT (site CATCCGTCTAG)”, 1.21.
As for “CATCCTACTTGGGTTCTAACCTGTTGCCG (site CATCCTACTAT)”, the figure is 0.0476.
For “CATCCTACTTGGGTTCTAACCTGTTGCCG (site CATCCTACTCG)” the value was 0.156; for “CATCCTACTTGGGTTCTAACCTGTTGCCT (site CATCCTACTAG)”, 0.259; for “CATCCTACTTGGGTTCTAACCTGTTGCCT (site TCCAACTCTGT)”, 0.153.
